ChEMBL document CHEMBL1138729, “Aminoimidazo[1,2-a]pyridines as a new structural class of cyclin-dependent kinase inhibitors. Part 1: Design, synthesis, and biological evaluation” (Bioorg Med Chem Lett, 2004)

What was measured:
[1] = molecular target: Cyclin-dependent kinase 2 (Homo sapiens, UniProt P24941); assay: Inhibitory activity against Cyclin-dependent kinase 2 (CDK2)
[2] = molecular target: Cyclin-dependent kinase 4 (Homo sapiens, UniProt P11802); assay: Inhibitory activity against Cyclin-dependent kinase 4 (CDK4)
Cyclin-dependent kinase 4, sequence (P11802 whole entry): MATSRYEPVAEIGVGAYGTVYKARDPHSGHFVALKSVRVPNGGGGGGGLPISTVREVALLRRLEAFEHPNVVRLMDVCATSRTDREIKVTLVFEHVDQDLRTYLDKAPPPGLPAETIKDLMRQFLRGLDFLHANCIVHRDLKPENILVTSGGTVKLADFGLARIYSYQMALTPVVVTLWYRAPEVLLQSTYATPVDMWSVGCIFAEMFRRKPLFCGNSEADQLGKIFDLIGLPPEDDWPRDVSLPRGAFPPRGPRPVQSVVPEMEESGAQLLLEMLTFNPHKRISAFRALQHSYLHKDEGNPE

[3] = Inhibitory activity against Cyclin-dependent kinase 1 (CDK1)

SMILES	IC50 [1]	IC50 [2]	IC50 [3]
Nc1nc2ccc(C(=O)c3ccccc3)cn2c1C(=O)c1c(F)cccc1F	1.93 µM	–	–
Nc1nc2ccc(C(=O)c3c(F)cccc3F)cn2c1C(=O)c1ccccc1	–	5.05 µM	–
CN1CCN(CCOc2cc(F)c(C(=O)c3c(N)nc4ccc(C(=O)c5c(Cl)cccc5Cl)cn34)c(F)c2)CC1	0.812 µM	–	–
Nc1nc2ccc(C(=O)c3c(F)cccc3F)cn2c1C(=O)c1ccncc1	2.54 µM	–	–
N#C/C=C(\c1ccc2nc(N)c(C(=O)c3c(F)cccc3F)n2c1)c1c(F)cccc1F	0.896 µM	–	–
Nc1nc2ccc(C(=O)c3ccccc3Cl)cn2c1C(=O)c1c(F)cccc1F	0.428 µM	–	–
COc1cccc(OC)c1C(=S)c1c(N)nc2ccc(C(=O)c3c(F)cccc3F)cn12	0.462 µM	–	–
Nc1nc2ccc(C(=O)c3c(F)cccc3F)cn2c1C(=O)c1ccc(Cl)cc1	1.71 µM	–	–
Nc1nc2ccc(C(=O)c3ccccc3C(F)(F)F)cn2c1C(=O)c1c(F)cccc1F	1.07 µM	–	–
Nc1nc2ccc(C(=O)c3ccccc3OC(F)(F)F)cn2c1C(=O)c1c(F)cccc1F	2.17 µM	–	–
Nc1nc2ccc(C(=O)c3c(F)cccc3F)cn2c1C(=O)c1cccs1	0.547 µM	–	–
COc1ccccc1C(=O)c1ccc2nc(N)c(C(=O)c3c(F)cccc3F)n2c1	0.603 µM	–	–
Cc1ccccc1C(=O)c1ccc2nc(N)c(C(=O)c3c(F)cccc3F)n2c1	1.29 µM	–	–
Nc1nc2ccc(C(=O)c3c(F)cccc3F)cn2c1C(=S)c1ccccc1	0.214 µM	1.89 µM	0.165 µM
CN(C)CCOc1cc(F)c(C(=O)c2c(N)nc3ccc(C(=O)c4c(Cl)cccc4Cl)cn23)c(F)c1	0.984 µM	–	–
Nc1nc2ccc(/C(=C/c3nn[nH]n3)c3c(F)cccc3F)cn2c1C(=O)c1c(F)cccc1F	1.69 µM	1.7 µM	0.096 µM
N#C/C=C(/c1ccc2nc(N)c(C(=O)c3c(F)cccc3F)n2c1)c1c(F)cccc1F	0.16 µM	1.55 µM	0.053 µM

Second part, the compound after the results:

IC50 [1]	IC50 [2]	IC50 [3]	SMILES
0.026 µM	0.786 µM	0.105 µM	Nc1nc2ccc(C(=O)c3c(F)cccc3F)cn2c1C(=S)c1c(F)cccc1F
0.091 µM	0.838 µM	0.132 µM	COc1cc(F)c(C(=O)c2c(N)nc3ccc(C(=O)c4c(F)cccc4F)cn23)c(F)c1
0.122 µM	1.08 µM	0.057 µM	Nc1nc2ccc(C(=O)c3c(F)cccc3F)cn2c1C(=O)c1c(F)cccc1F
0.121 µM	0.359 µM	0.209 µM	Nc1nc2ccc(C(=O)c3c(F)cccc3F)cn2c1C(=O)c1c(Cl)cccc1Cl
0.095 µM	2.59 µM	0.328 µM	Nc1nc2ccc(C(=O)c3c(Cl)cccc3Cl)cn2c1C(=O)c1c(F)cc(C(=O)O)cc1F
0.046 µM	1.14 µM	0.154 µM	NC(=O)c1cc(F)c(C(=O)c2c(N)nc3ccc(C(=O)c4c(Cl)cccc4Cl)cn23)c(F)c1
0.052 µM	–	–	Nc1nc2ccc(C(=O)c3c(Cl)cccc3Cl)cn2c1C(=O)c1c(F)cc(O)cc1F
0.053 µM	–	–	Nc1nc2ccc(C(=O)c3c(Cl)cccc3Cl)cn2c1C(=O)c1c(F)cccc1F
0.063 µM	1.03 µM	0.093 µM	C=C(c1ccc2nc(N)c(C(=O)c3c(F)cccc3F)n2c1)c1c(F)cccc1F
0.033 µM	0.81 µM	0.104 µM	Nc1nc2ccc(C(=O)c3c(F)cccc3Cl)cn2c1C(=O)c1c(F)cccc1F
0.102 µM	0.827 µM	0.239 µM	Nc1nc2ccc(C(=O)c3c(F)cccc3F)cn2c1C(=O)c1c(F)cccc1Cl
0.068 µM	1.97 µM	0.475 µM	COc1ccccc1C(=O)c1c(N)nc2ccc(C(=O)c3c(F)cccc3F)cn12
0.029 µM	0.464 µM	0.143 µM	COc1cc(F)c(C(=S)c2c(N)nc3ccc(C(=O)c4c(F)cccc4F)cn23)c(F)c1
